Assay results: patent US10646589B2, “Thyroid stimulating hormone receptor peptides and uses thereof” (APITOPE INTERNATIONAL NV, priority 2014, dated 2020)
Counter-ions that a name gives are not always drawn.

Legend:
[1] = tested on: anti-TSHR antibodies (IgG class); assay: Adenoviral animal model for GD: detection of anti-TSHR antibodies by ELISA; type: in vivo, DR3tg mice
Protocol: (§1) DR3tg mice were injected subcutaneously in the flank region with 22.5 pmol, 225 pmol and 2250 pmol ATX-GD-59 or control treatment on days −15, −13 and −11 respectively, followed by 3 injections of 22.5 nmol ATX-GD-59 (top dose/peptide) or control treatment on days −8, −6 and −4 (dose escalation schedule). Alterations in top doses, and correspondingly in dose escalation doses, are indicated per experiment.
Anti-TSHR antibodies (IgG class) against purified recombinant TSHR-ECD (Chesapeake-Perl) were measured using ELISA. […] The signal was developed with tetramethylbenzidine (TMB).
(§2) Alterations in top doses, and correspondingly in dose escalation doses, are indicated per experiment. […] New osmotic pumps were implanted after 4 weeks. […] On day 0, mice were immunized by intramuscular injection with 10^9 or 10^10 Ad-TSHR viral particles and the immunization was repeated three weeks later. […] Mice were euthanized 5 weeks after the first immunization to obtain blood, thyroid and spleen samples. TSHR-induced splenocyte proliferation, cytokine secretion and anti-TSHR antibody levels were assessed as described below.
Anti-TSHR antibodies (IgG class) against purified recombinant TSHR-ECD (Chesapeake-Perl) were measured using ELISA. […] The signal was developed with tetramethylbenzidine.
The signal was developed with tetramethylbenzidine (TMB).
Alterations in top doses, and correspondingly in dose escalation doses, are indicated per experiment. On day 0, mice were immunised by intramuscular injection with 10^9 Ad-TSHR or Ad-LacZ viral particles and the immunisation was repeated three weeks later. Five weeks after the first immunisation, blood and spleens were collected.

[2] = tested on: TSHR-specific splenocyte proliferation; assay: Adenoviral animal model for GD: TSHR-specific splenocyte proliferation; type: in vivo, DR3tg mice; conditions: 10^9 Ad-TSHR; ATX-GD-459 15 nmol top dose; MMI 500 μg daily s.c. pump; to be interpreted with caution
Protocol: as §1, §2

[3] = tested on: Total thyroxine (T4); assay: Detection of hyperthyroidism: total thyroxine (T4) in serum by ELISA; type: in vivo, DR3tg mice
Protocol: Total thyroxine (T4) was measured in undiluted mouse serum (10 μl) using the CBI mouse/rat thyroxine ELISA kit (Calbiotech, Spring Valley, Calif., USA) according to the manufacturer's instructions. T4 values were computed from standards in the kit and expressed as μg/dl.
as §2, with “experiment. Starting on the day of the first peptide treatment until termination of the experiment, mice were treated either MMI or propranolol.” for “experiment.”
Total thyroxine (T4) was measured in undiluted mouse serum (10 μl) using the CBI mouse/rat thyroxine ELISA kit (Calbiotech, Spring Valley, Calif., USA) according to the manufacturer's instructions. T4 values were computed from standards in the kit and expressed as μg/dl. In addition to serum T4 determinations, thyroid histology was used as a parameter for hyperthyroidism. Thyroid glands were fixed in 10% neutral buffered formalin (pH 7.5), processed to sections and stained with hematoxylin and eosin.

[4] = Propranolol levels in mouse plasma by LC-MSMS; type: in vivo, DR3tg mice; conditions: 10 mg/kg/day IP; 60-90 minutes post-dose; weeks 0 and 5; FIG. 18
Protocol: Blood samples were collected between 60 and 90 minutes post-dose and individual plasma levels compared between W0 and W5.

[5] = tested on: TSHR-induced T cell proliferation; assay: Ex vivo tolerization experiment: TSHR-induced proliferation of LN cells and splenocytes after peptide pretreatment; type: in vivo, DR3tg mice; conditions: vs control-treated; s.c. dose escalation schedule; top dose 5D-K1 100 μg, 9B-N 33 μg, ATX-GD-59 15 nmol/peptide; 10 days after parental peptide/CFA immunization
Protocol: DR3tg mice were injected subcutaneously in the flank region with 0.1 μg, 1 μg and 10 μg peptides on days −15, −13 and −11 respectively, followed by 3 injections of 100 μg (top dose/peptide) soluble peptide (5D-K1 or 9B-N) on days −8, −6 and −4 (dose escalation schedule). The ATX-GD-59 is an equimolar mix of the peptides 5D-K1 (SEQ ID NO:1) and 9B-N (SEQ ID NO:2) and the top dose mentioned (nmol) is per peptide in the cocktail. A peptide dose of 100 ug corresponds to ˜45 nmol as both systems been used in different experiments. The peptides were administered subcutaneous in PBS. Alterations in top doses/peptide, and correspondingly in dose escalation doses, are indicated per experiment. On day 0, the mice were immunized subcutaneously in the base of the tail with 50 μg corresponding to the parental peptide (non-modified 5D and/or 9B) emulsified in Complete Freund adjuvants (CFA; 2 mg/ml Mycobacterium tuberculosis H37RA (Difco Laboratories, Michigan, US) in Incomplete Freund adjuvant (Difco)) (50 μg peptide in 100 μL CFA (100 μg H37RA)/injection). Ten days after immunization, draining LN and spleens were harvested. LN cells and splenocytes were isolated and cultured in X-vivo 15 medium supplemented with 2 mM L-glutamine, 50 U/mL penicillin and 50 U/mL streptomycin (all Lonza, Verviers, Belgium) in 96-well flat bottom plates. To investigate antigen-induced cell proliferation, 0.5×10^6 cells/well were cultured (200 μL/well) for 72 hours with TSHR-ECD in a concentration range of 0-25 μg/mL or with 12.5 μg/mL purified protein derivative (PPD; immunisation control; Statens serum institut, Copenhagen, Denmark). After 72 hours in a 37° C. incubator with 5% CO2, 60 μL of cell supernatant was harvested and frozen. 20 μL/well of tritiated thymidine (PerkinElmer, Zaventem, Belgium) were then added to the cells to obtain a final concentration of 1 μCi/well. The cells were incubated at 37° C. and 5% CO2, and after 16 h, plates were frozen. Thawed plates were harvested and read on a β-counter (Wallac 1450 Microbeta Trilux Liquid Scintillation Counter) to assess cell proliferation.
DR3tg or DR4tg mice were injected subcutaneously in the flank region with 0.1 μg, 1 μg and 10 μg of peptide on days −15, −13 and −11 respectively, followed by 3 injections of 33, 75 or 100 μg peptide (depending on top dose, see Figure legends) on days −8, −6 and −4 (dose escalation schedule). Alterations in top doses, and correspondingly in dose escalation doses, are indicated per experiment. On day 0, the mice were immunised subcutaneously in the base of the tail with 50 μg antigen (non-modified parental 15-mer peptide) emulsified in CFA (peptide/CFA). […] Thawed plates were harvested and read with β-counter (Wallac 1450 Microbeta Trilux Liquid Scintillation Counter) to assess the cell proliferation.

[6] = tested on: Antigen-specific T cell hybridomas with fixed or not fixed VAVY or BM14 cells (APCs); assay: Antigen Processing Independent Presentation System (APIPS) assay; type: cell-based; conditions: 25 μg/ml peptide; fixed or fresh VAVY (DR3) or BM14 (DR4) APCs; 48 h; IL-2 ELISA
Protocol: 5×10^4 T cell hybridoma clones specific for RNB-5 (clone 50+35) or RNB-4 (clone 164+455) and TSHR were cultured in presence of TSHR and RNB-5D-K1 or RNB-4K-GKK in combination with 5×10^4 human DR3 expressing antigen presenting B cells (VAVY) (clone 50) or with DR4 expressing antigen presenting B cells (BM14) (Clone 35, 164, 455). Antigen-Presenting Cells (APC) were viable or previously fixed with 0.5% paraformaldehyde prior to addition to the culture wells. After 48 h of co-culture, the supernatants were harvested and analysed by ELISA to assess levels of IL-2 secretion. Results from representative clones are presented.
Antigen-specific T cell hybridomas were tested for their reactivity to the peptides, presented by fixed or not fixed VAVY or BM14 cells (=APCs). 5×10^4 cells from the individual clones were cultured with 25 μg/ml peptide and 5×10^4 fixed or fresh APCs. To fixate APCs, cells were incubated with 0.5% paraformaldehyde (Merck, Darmstadt, Germany) (pH7) for 5 min at room temperature (RT). The fixation reaction was stopped by adding 0.4M glycine (Sigma-Aldrich) and washing the cells in RPMI-10% FCS. Additionally, reactivity towards human TSHR-ECD protein (Chesapeake-PERL, Savage, Md., USA) was measured to identify epitopes. After 48 h, antigen-induced IL-2 production was measured by ELISA.

[7] = co-medication MMI 500 μg daily + ATX-GD-459 15 nmol

Molecule: Cn1cc[nH]c1=S [MMI, methimazole]
- effect on anti-TSHR antibody levels, MMI study ([1]; MMI 500 μg daily s.c. osmotic pump, 10^9 Ad-TSHR): had no effect
- effect on anti-TSHR IgG isotypes, MMI study ([1]; MMI 500 μg daily, 10^9 Ad-TSHR): had no effect
- changes in anti-TSHR IgG levels, model validation ([1]; MMI 50 or 500 μg/mouse/day s.c. pump for 4 weeks, Ad-TSHR week 0 and 3): no changes
- effect on antibody reducing capability of ATX-GD-459 (IgG isotypes), MMI study [1, 7]: did not affect
- influence on antibody reducing capability of ATX-GD-459 (total IgG), MMI study [1, 7]: did not influence
- effect on TSHR-specific splenocyte proliferation, MMI co-medication study [2]: significant reduction
- T4 levels, MMI 50 μg daily, model validation ([3]; 50 μg dose): only showed a trend towards reduced T4 levels
- T4 levels, MMI 500 μg daily, model validation ([3]; daily dose of 500 μg, both at 2 and 4 weeks after first immunisation): significantly reduced
- effect on serum T4 levels, MMI co-medication study ([3]; week 5, MMI 500 μg daily, ATX-GD-459 15 nmol top dose, 10^9 Ad-TSHR): significantly reduced

Molecule: CC(C)NCC(O)COc1cccc2ccccc12 (centres unmarked) [propranolol, Propranolol hydrochloride]
- Total T4 levels, propranolol co-medication study ([3]; week 5, propranolol 10 mg/kg/day IP, ATX-GD-459 15 nmol, 10^10 Ad-TSHR): not affected
- plasma levels of propranolol [4]: confirms pharmacological dose

Molecule: GLKMFPDLTKVYSTD (H-GLKMFPDLTKVYSTD-NH2) [Peptide 9B-N, TSHR peptide]
- reduction of TSHR-induced T cell proliferation, LN samples [5]: 33%
- reduction of TSHR-induced T cell proliferation, spleen samples [5]: 41%

Molecule: KKGNLPNISRIYVSIDVTGKK (H-KKGNLPNISRIYVSIDVTGKK-NH2) [RNB-4K-GKK, modified TSHR apitope peptide]
- apitope status (presentation by fixed APCs, IL-2 secretion) [6]: confirmed to be apitopes

Molecule: KKKKYVSIDVTLQQLESHKKK (H-KKKKYVSIDVTLQQLESHKKK-NH2) [Peptide 5D-K1, modified TSHR apitope peptide]
- reduction of TSHR-induced T cell proliferation, LN samples [5]: 60%
- reduction of TSHR-induced T cell proliferation, spleen samples [5]: 43%
- apitope status (presentation by fixed APCs, IL-2 secretion) [6]: confirmed to be apitopes
